Data from US20060183902A1, “Dihydroindolyl methanones as alpha 1a/1d adrenoreceptor modulators for the treatment of benign prostatic hypertrophy and lower urinary tract symptoms” (priority 2005, published 2006).
Values joined by “and” are separate entries in the source; they are usually repeats but may differ in a detail not shown here. Equal entries are not always repeated.

Key:
α1a-AR = target: T1, α1a-AR (Homo sapiens, UniProt P35348); test: α1-Adrenergic receptor radio-ligand (125I-HEAT) binding assay, α1a subtype; details: COS-7 cell membranes transfected with α1a-AR, 125I-HEAT 50 pM; read-out: Receptor Binding, Ki α1a-AR
T1 construct: expressed in transfected cells; host or cells: COS-7
T1 sequence (P35348 1-466): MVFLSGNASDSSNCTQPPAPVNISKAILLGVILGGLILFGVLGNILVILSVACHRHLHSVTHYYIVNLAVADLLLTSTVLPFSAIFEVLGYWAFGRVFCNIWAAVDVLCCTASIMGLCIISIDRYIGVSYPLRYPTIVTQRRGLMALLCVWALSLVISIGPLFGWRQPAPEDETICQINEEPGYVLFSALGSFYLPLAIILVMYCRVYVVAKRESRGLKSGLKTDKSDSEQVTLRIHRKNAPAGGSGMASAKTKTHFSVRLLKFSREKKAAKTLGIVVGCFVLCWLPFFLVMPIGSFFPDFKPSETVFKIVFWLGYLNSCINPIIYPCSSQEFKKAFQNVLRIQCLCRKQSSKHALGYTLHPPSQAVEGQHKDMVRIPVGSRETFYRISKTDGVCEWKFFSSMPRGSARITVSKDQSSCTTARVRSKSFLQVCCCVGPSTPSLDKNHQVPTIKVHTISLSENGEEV
Method: (§1) Membranes were prepared from COS-7 cells (African Green monkey kidney SV40-transformed cells) that had been transfected with one of the three α1-AR subtypes by the following method:
(§2) COS cells from ten 100 mm tissue culture plates were scraped into a 5 mL volume of TE (a mixture of 50 mM tris(hydroxymethyl)aminomethane hydrochloride (Tris-HCl) and 5 mM ethylenediaminetetraacetic acid (EDTA) at pH 7.4). The cell suspension was disrupted with a Brinkman Polytron (at a setting of 8) for 10 sec. The disrupted cells were centrifuged at 1000×g for 10 min at 4° C. Supernatants were centrifuged at 34,500×g for 20 min at 4° C. The membrane pellets were suspended in a 2 mL volume of TNE (a mixture of 50 mM Tris-HCl, 5 mM EDTA and 150 mM NaCl at pH7.4). An aliquot of the membrane suspension was stored at −70° C. until use. The protein concentration was determined using a BioRad “DC” protein assay kit following membrane solubilization with Triton X-100.
(§3) Triplicate determinations of radio-ligand binding in the presence of increasing concentrations of testing compound were made. The reagents were added to 96-well polypropylene plate wells. Each assay well contained 140 μL TNE, 25 μL ^125I-2-(β-4-hydroxyplenyl)ethylaminomethyltetralone (^125I-HEAT) (specific activity 2200 Ci/mmol, Dupont-New England Nuclear, 50 pM final), 10 μL testing compound dissolved in dimethyl sulfoxide (DMSO) (1 pM to 10 μM in half-log increments, final), and 25 μL appropriate α1-AR membrane subtype suspension in TNE (0.5 ng/μL for the α1a and α1b subtypes and 13 ng/μL for the α1d subtype). The plate was incubated at rt for 1 hr. The contents of the wells were filtered through a glass filter (type C) (GF/C) membrane Unifilter plate (Packard Instruments) using the Packard Filtermate cell harvester. The filter plates were dried in a vacuum oven for 30 min at 40° C. 25 μL Microscint 20 liquid scintillation fluid (Packard Instuments) was added to each well. The radioactive content was analyzed in the TopCount microplate scintillation counter (Packard Instruments).
(§4) The Ki values (in nM) shown in Table 1 were determined using GraphPad Prism software.

α1d-AR = target: T2, α1d-AR (Homo sapiens, UniProt P25100); test: α1-Adrenergic receptor radio-ligand (125I-HEAT) binding assay, α1d subtype; details: COS-7 cell membranes transfected with α1d-AR, 125I-HEAT 50 pM; read-out: Receptor Binding, Ki α1d-AR
T2 construct: expressed in transfected cells; host or cells: COS-7
T2 sequence (P25100 1-572): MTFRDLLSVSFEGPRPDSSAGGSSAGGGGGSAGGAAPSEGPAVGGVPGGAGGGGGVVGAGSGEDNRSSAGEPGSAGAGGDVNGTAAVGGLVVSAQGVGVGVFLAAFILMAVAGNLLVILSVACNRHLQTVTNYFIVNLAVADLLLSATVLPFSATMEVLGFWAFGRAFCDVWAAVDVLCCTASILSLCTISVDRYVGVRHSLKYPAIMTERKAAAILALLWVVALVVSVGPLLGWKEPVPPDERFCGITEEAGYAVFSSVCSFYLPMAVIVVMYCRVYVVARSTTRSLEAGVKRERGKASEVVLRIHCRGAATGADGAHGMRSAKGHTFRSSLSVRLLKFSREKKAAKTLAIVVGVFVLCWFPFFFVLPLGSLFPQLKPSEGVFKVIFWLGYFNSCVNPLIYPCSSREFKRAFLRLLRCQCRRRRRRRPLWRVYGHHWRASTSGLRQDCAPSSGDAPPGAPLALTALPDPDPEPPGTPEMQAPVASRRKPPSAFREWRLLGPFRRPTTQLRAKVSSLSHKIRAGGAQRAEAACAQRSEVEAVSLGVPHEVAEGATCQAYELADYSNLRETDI
Method: as §1, §2, §3, §4

α1b-AR = target: T3, α1b-AR (Homo sapiens, UniProt P35368); test: α1-Adrenergic receptor radio-ligand (125I-HEAT) binding assay, α1b subtype; details: COS-7 cell membranes transfected with α1b-AR, 125I-HEAT 50 pM; read-out: Receptor Binding, Ki α1b-AR
T3 construct: expressed in transfected cells; host or cells: COS-7
T3 sequence (P35368 1-520): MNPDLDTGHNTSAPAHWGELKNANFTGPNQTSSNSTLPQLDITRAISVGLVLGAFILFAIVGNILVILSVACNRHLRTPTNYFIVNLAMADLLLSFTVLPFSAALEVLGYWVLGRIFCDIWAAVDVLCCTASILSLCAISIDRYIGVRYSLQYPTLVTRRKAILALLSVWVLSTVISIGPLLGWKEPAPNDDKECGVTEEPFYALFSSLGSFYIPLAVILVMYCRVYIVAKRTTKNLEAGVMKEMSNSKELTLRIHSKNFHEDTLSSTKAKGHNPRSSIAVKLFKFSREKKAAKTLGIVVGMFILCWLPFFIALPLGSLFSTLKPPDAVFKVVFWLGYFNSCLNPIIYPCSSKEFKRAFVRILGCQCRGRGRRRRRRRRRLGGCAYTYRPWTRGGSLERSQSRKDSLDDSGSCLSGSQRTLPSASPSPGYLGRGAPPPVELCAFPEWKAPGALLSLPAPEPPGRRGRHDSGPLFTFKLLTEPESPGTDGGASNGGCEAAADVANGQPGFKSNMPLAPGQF
Method: as §1, §2, §3, §4

| Ki (α1a-AR) | Ki (α1d-AR) | Ki (α1b-AR) | SMILES |
| --- | --- | --- | --- |
| 5.5 nM | 3.4 nM | 282 nM | CC(C)Oc1ccccc1N1CCN(Cc2cccc(C(=O)N3CCc4ccc(NC5CCc6ccccc6C5)cc43)c2)CC1 (stereo not drawn) [Cpd 16, {3-[4-(2-isopropoxy-phenyl)-piperazin-1-ylmethyl]-phenyl}-[6-(1,2,3,4-tetrahydro-naphthalen-2-ylamino)-2,3-dihydro-indol-1-yl]-methanone] |
| 14 nM | 7.6 nM | 812 nM | CC(C)Oc1ccccc1N1CCN(Cc2cccc(C(=O)N3CCc4cc(NS(N)(=O)=O)ccc43)c2)CC1 [Cpd 17, N-(1-{3-[4-(2-isopropoxy-phenyl)-piperazin-1-ylmethyl]-benzoyl}-2,3-dihydro-1H-indol-5-yl)-sulfamide] |
| 4.7 nM and 8.1 nM | 1.9 nM and 2.6 nM | 494 nM and 394 nM | CC(C)Oc1ccccc1N1CCN(Cc2cccc(C(=O)N3CCc4ccc(NS(N)(=O)=O)cc43)c2)CC1 [Cpd 20, N-(1-{3-[4-(2-isopropoxy-phenyl)-piperazin-1-ylmethyl]-benzoyl}-2,3-dihydro-1H-indol-6-yl)-sulfamide] |
| 73 nM | 12.5 nM | 1390 nM | CC(C)Oc1ccccc1N1CCN(Cc2cccc(C(=O)N3CCc4cc(NC(=O)Nc5ccccc5)ccc43)c2)CC1 [Cpd 21, 1-(1-{3-[4-(2-isopropoxy-phenyl)-piperazin-1-ylmethyl]-benzoyl}-2,3-dihydro-1H-indol-5-yl)-3-phenyl-urea] |
| 39 nM | 5 nM | 251 nM | CC(C)Oc1ccccc1N1CCN(Cc2cccc(C(=O)N3CCc4ccc(NC(=O)Nc5ccccc5)cc43)c2)CC1 [Cpd 22, 1-(1-{3-[4-(2-isopropoxy-phenyl)-piperazin-1-ylmethyl]-benzoyl}-2,3-dihydro-1H-indol-6-yl)-3-phenyl-urea] |
| 48 nM | 15 nM | 1470 nM | CCOC(OCC)c1ccc(CNc2ccc3c(c2)CCN3C(=O)c2cccc(CN3CCN(c4ccccc4OC(C)C)CC3)c2)cc1 [Cpd 24, [5-(4-diethoxymethyl-benzylamino)-2,3-dihydro-indol-1-yl]-{3-[4-(2-isopropoxy-phenyl)-piperazin-1-ylmethyl]-phenyl}-methanone] |
| 16.5 nM | 11 nM | 379 nM | CC(C)Oc1ccccc1N1CCN(Cc2cccc(C(=O)N3CCc4cc(NCc5ccc6c(c5)OCO6)ccc43)c2)CC1 [Cpd 27, {5-[(benzo[1,3]dioxol-5-ylmethyl)-amino]-2,3-dihydro-indol-1-yl}-{3-[4-(2-isopropoxy-phenyl)-piperazin-1-ylmethyl]-phenyl}-methanone] |
| 17 nM | 6.8 nM | 796 nM | COc1cccc(OC)c1C(=O)Nc1ccc2c(c1)N(C(=O)c1cccc(CN3CCN(c4ccccc4OC(C)C)CC3)c1)CC2 [Cpd 28, N-(1-{3-[4-(2-isopropoxy-phenyl)-piperazin-1-ylmethyl]-benzoyl}-2,3-dihydro-1H-indol-6-yl)-2,6-dimethoxy-benzamide] |
| 26 nM and 30.5 nM | 4.5 nM and 42 nM | 278 nM and 193 nM | COc1ccccc1N1CCN(Cc2cccc(C(=O)N3CCc4ccccc43)c2)CC1 [Cpd 30, (2,3-dihydro-indol-1-yl)-{3-[4-(2-methoxy-phenyl)-piperazin-1-ylmethyl]-phenyl}-methanone] |
| 171 nM | 11.6 nM and 88 nM | 331 nM | N#Cc1ccccc1N1CCN(Cc2cccc(C(=O)N3CCc4ccccc43)c2)CC1 [Cpd 31, (2,3-dihydro-indol-1-yl)-{3-[4-(2-cyano-phenyl)-piperazin-1-ylmethyl]-phenyl}-methanone] |
| 48.8 nM | 49.1 nM | 658 nM | COc1ccccc1C1CCN(Cc2ccc(C(=O)N3CCc4cc(N)ccc43)cc2)CC1 [Cpd 33, (5-amino-2,3-dihydro-indol-1-yl)-{4-[4-(2-methoxy-phenyl)-piperidin-1-ylmethyl]-phenyl}-methanone] |
| 34.9 nM | 49.6 nM | 473 nM | COc1ccccc1C1CCN(Cc2ccc(C(=O)N3CCc4ccc(N)cc43)cc2)CC1 [Cpd 34, (6-amino-2,3-dihydro-indol-1-yl)-{4-[4-(2-methoxy-phenyl)-piperidin-1-ylmethyl]-phenyl}-methanone] |
| 5.3 nM | 8.5 nM | 201 nM | COc1ccccc1C1CCN(Cc2ccc(C(=O)N3CCc4ccc([N+](=O)[O-])cc43)cc2)CC1 [Cpd 35, {4-[4-(2-methoxy-phenyl)-piperidin-1-ylmethyl]-phenyl}-(6-nitro-2,3-dihydro-indol-1-yl)-methanone] |
| 39.2 nM | 40.2 nM | 1010 nM | CCOC(OCC)c1ccc(CNc2ccc3c(c2)CCN3C(=O)c2ccc(CN3CCC(c4ccccc4OC)CC3)cc2)cc1 [Cpd 36, [5-(4-diethoxymethyl-benzylamino)-2,3-dihydro-indol-1-yl]-{4-[4-(2-methoxy-phenyl)-piperidin-1-ylmethyl]-phenyl}-methanone] |
| 75.6 nM | 98 nM | 909 nM | CCOC(OCC)c1ccc(CNc2ccc3c(c2)N(C(=O)c2ccc(CN4CCC(c5ccccc5OC)CC4)cc2)CC3)cc1 [Cpd 37, [6-(4-diethoxymethyl-benzylamino)-2,3-dihydro-indol-1-yl]-{4-[4-(2-methoxy-phenyl)-piperidin-1-ylmethyl]-phenyl}-methanone] |
| 124 nM | 44.2 nM | 461 nM | COc1ccccc1C1CCN(Cc2ccc(C(=O)N3CCc4cc([N+](=O)[O-])ccc43)cc2)CC1 [Cpd 38, {4-[4-(2-methoxy-phenyl)-piperidin-1-ylmethyl]-phenyl}-(5-nitro-2,3-dihydro-indol-1-yl)-methanone] |
| 74 nM | 41 nM | 595 nM | COc1ccccc1C1CCN(Cc2ccc(C(=O)N3CCc4ccc(NC(=O)c5c(OC)cccc5OC)cc43)cc2)CC1 [Cpd 39, 2,6-dimethoxy-N-(1-{4-[4-(2-methoxy-phenyl)-piperidin-1-ylmethyl]-benzoyl}-2,3-dihydro-1H-indol-6-yl)-benzamide] |
